Positions of bridges follow the written chain, without caps; N, C: chain ends. Residues, ends and D or L forms follow the SMILES beside them. Chains are numbered I, II in the order given. No end group written: not given here.

Assay [1] is described as follows: Surface plasmon resonance binding to lipid bilayer, L1 chip, two-state model. To be noted: affinity constant of second step, K2 = ka2/kd2. The text has this:
To investigate the mode of action of gH625-H7 and gH625-G7 and for comparisons with gH625[6], we used SPR. In a previous paper[7] we also reported the data for two control peptides: the melittin and the HIV fusion peptide (gp41-FP). Figure 6 reports the obtained sensorgrams of the binding and an increase of the RU signal intensity as a function of the peptide concentration can be observed. […] In particular, all the sensorgrams obtained for gH625[7] and gH625-G7 indicate the binding to the lipid surfaces is characterized by an initial fast association process which then slows down considerably towards the end of the peptide injection. The dissociation follows a similar trend, characterized by the signal falling rapidly at the end of injection when the peptide is no longer present and the buffer flow removes free or weekly bound peptide.
The average values for the rate constants obtained with the two-state model analysis are reported in Table 4 along with the affinity constant values (K A). The data clearly indicate the main influence on the overall binding constant of the fast association rate and slow dissociation rate of the first step.
We used a BIAcore 3000 analytical system (Biacore, Uppsala, Sweden) equipped with a L1 sensor chip which contains hydrophobic alkanethiol chains, with exposed polar head groups; a lipid bilayer was created by introducing liposomes to the chip. SUVs composed by DOPG/Chol (60/40) (80 μL, 0.5 mM) were applied to the chip surface at a flow rate of 2 μL/min. […] BSA was used as a negative control (25 μL, 50 μL/min […] in PBS) to confirm complete coverage of the nonspecific binding sites. Several sensorgrams were obtained with 30 μL of the peptide solutions injected at a flow rate of 5 μL/min, followed by PBS for 15 min to allow peptide dissociation. […]
Kinetic data were assessed through the χ^2 values, plots of the residuals from the model fitting and standard deviations. […]

Assay [2] can be described thus: Lipid mixing (NBD/Rho FRET membrane fusion). The following applies: lipid 0.1 mM, 25 °C. The text has this:
In order to gain insight into the ability to interact and perturb the lipid membrane, nitrobenzoxadiazole (NBD) and Rhodamine (Rho) were used as the donor and acceptor of fluorescence energy transfer. Dilution of labelled vesicles caused by peptide induced membrane fusion, determines a larger average distance between fluorescent and quenching lipids and thus a reduction in the fluorescence energy transfer efficiency. […] The three peptides interact more strongly with LUVs containing cholesterol, confirming the preference for more rigid membranes.
Figure 1 Peptide-promoted membrane fusion as determined by lipid mixing of gH625 (A), gH625-H7 (B) and gH625-G7 (C) in LUVs composed of: DOPG, DOPG/Chol 60/40 (mol/mol) and DOPC/Chol 60/40 (mol/mol). […] Lipid concentration is 0.1 mM. […] Panel D reports the peptide-promoted membrane fusion of the three peptides in DOPG/Chol LUVs 60/40 (mol/mol).
A cut off filter at 515 nm was used.

In assay [1], `CC[C@H](C)[C@H](NC(=O)[C@H](CC(C)C)NC(=O)[C@H](C)NC(=O)[C@H](CC(N)=O)NC(=O)[C@H](Cc1ccc(O)cc1)NC(=O)[C@H](Cc1c[nH]cn1)NC(=O)[C@H](C)NC(=O)[C@H](Cc1c[nH]c2ccccc12)NC(=O)[C@H](CCCNC(=N)N)NC(=O)[C@@H](NC(=O)[C@H](CC(C)C)NC(=O)[C@@H](NC(=O)[C@H](CO)NC(=O)[C@H](C)NC(=O)[C@H](CC(C)C)NC(=O)CNC(=O)[C@@H](N)Cc1c[nH]cn1)[C@@H](C)O)[C@@H](C)O)C(=O)N[C@@H](CCCNC(=N)N)C(=O)N[C@@H](C)C(=O)N[C@@H](Cc1ccccc1)C(=O)NCC(=O)NCC(=O)NCC(=O)N[C@@H](CCCCN)C(=O)N[C@@H](CCCCN)C(=O)N[C@@H](CCCCN)C(=O)N[C@@H](CCCCN)C(N)=O` [gH625-G7] (H-HGLASTLTRWAHYNALIRAFGGGKKKK-NH2) displayed a K2 of 5.72.

Consider `CC[C@H](C)[C@H](NC(=O)[C@H](CC(C)C)NC(=O)[C@H](C)NC(=O)[C@H](CC(N)=O)NC(=O)[C@H](Cc1ccc(O)cc1)NC(=O)[C@H](Cc1c[nH]cn1)NC(=O)[C@H](C)NC(=O)[C@H](Cc1c[nH]c2ccccc12)NC(=O)[C@H](CCCNC(=N)N)NC(=O)[C@@H](NC(=O)[C@H](CC(C)C)NC(=O)[C@@H](NC(=O)[C@H](CO)NC(=O)[C@H](C)NC(=O)[C@H](CC(C)C)NC(=O)CNC(=O)[C@@H](N)Cc1c[nH]cn1)[C@@H](C)O)[C@@H](C)O)C(=O)N[C@@H](CCCNC(=N)N)C(=O)N[C@@H](C)C(=O)N[C@@H](Cc1ccccc1)C(N)=O` [gH625] (H-HGLASTLTRWAHYNALIRAF-NH2), for which the “lipid mixing activity in DOPG LUVs” value in assay [2] (average of three experiments) is reported as “less active than the other two”. The molecule further displayed a K2 in assay [1] of 0.41.

Consider “I: HGLASTLTRWAHYNALIRAFGCGKKKK-NH2 / II: HGLASTLTRWAHYNALIRAFGCGKKKK-NH2 (disulfide I:22-II:22) [gH625-H7]”, for which, in assay [2] (compared to the other peptides), the “lipid mixing activity in DOPG/Chol LUVs” value was “significantly higher activity”. Also, the K2 in assay [1] was 3.89.

These data come from article PMC5572722, “Dimerization in tailoring uptake efficacy of the HSV-1 derived membranotropic peptide gH625” (Scientific Reports, 2017).
